Measured values: patent US20230227815A1, “Systems, Methods, And Compositions For A Facile Accelerated Specific Therapeutic (Fast) Pipeline” (priority 2019, published 2023)
In brackets after ≈: the same amount, converted by molar mass.

Tested on: E. Coli CUS2B
Assay: Minimum inhibitory concentration assay
Format: cell-based
Conditions: for resistance phenotype (CLSI breakpoints): E. Coli CUS2B clinical isolate; for MIC: Escherichia coli, E. Coli CUS2B
Excerpt: To validate the E. Coli CUS2B resistance phenotype observed in the clinic, we measured the isolate's minimum inhibitory concentrations (MIC) for a variety of antibiotics from different classes (FIG. 17A). […] Two potent carbapenem antibiotics, meropenem and doripenem, were the only drugs to which the clinical isolate was susceptible. To investigate this partial carbapenem resistance, we focused on the E. Coli CUS2B response to ertapenem and meropenem. The structures of meropenem and ertapenem differ in the pyrrolidinyl ring's position 2 side chain (FIG. 17B). Meropenem's substituent amide group is thought to be responsible for increased potency against gram-negative organisms in comparison to imipenem. At this position ertapenem has a benzoate substituent group, which imbues the molecule with a net negative charge and increases its lipophilicity, resulting in increased plasma half-life but decreased affinity for membrane porins.
E. Coli CUS2B was provided the Dr. Nancy Madinger, at the University of Colorado Hospital Clinical Microbiology Laboratory's organism bank. The isolate was obtained via rectal swab from a pregnant patient. Unless otherwise mentioned, CUS2B was propagated in aerobic conditions at 37° C. in liquid cultures of cation-adjusted Mueller Hinton broth (CAMHB) with shaking at 225 rpm or on solid CAMHB with 15 g/L of agar. Minimum inhibitory concentration assays Three colonies were picked from a plate and used to inoculate three separate overnight cultures in 1 mL CAMHB each. After 16 hours, the cultures were diluted 1:10,000 and treated with a range of antibiotic concentrations, decreasing in 2-fold increments, in a 384 or 96-well microplate using three biological replicates per condition. Growth in the plate was monitored with a Tecan GENios (Tecan Group Ltd.) running Magellan™ software (v 7.2) at an absorbance of 461 590 nm every 20 minutes for 16 hours, with shaking between measurements. The minimum inhibitory concentration was identified as the lowest antibiotic concentration preventing growth.

Row | SMILES | resistance phenotype (CLSI breakpoints) | MIC
1 | C[C@@H](O)[C@H]1C(=O)N2C(C(=O)O)=C(S[C@@H]3CN[C@H](CNS(N)(=O)=O)C3)[C@H](C)[C@H]12 [doripenem] | susceptible | –
2 | C[C@@H](O)[C@H]1C(=O)N2C(C(=O)O)=C(S[C@@H]3CN[C@H](C(=O)Nc4cccc(C(=O)O)c4)C3)[C@H](C)[C@H]12 [ertapenem] | resistant | 2 µg/mL (≈ 4.21 µM)
3 | C[C@@H](O)[C@H]1C(=O)N2C(C(=O)O)=C(S[C@@H]3CN[C@H](C(=O)N(C)C)C3)[C@H](C)[C@H]12 [meropenem] | susceptible | 0.25 µg/mL (≈ 0.652 µM)
